Data: PubChem BioAssay AID256 (DTP/NCI, 2004)
“And” between values parts separate entries of the source, which are not always exact repeats. Equal entries are not always repeated. Toxic doses and inconclusive results are not listed.

Tested on: CD2F1 mice, L1210 leukemia ip, survival T/C
Test: NCI In Vivo Anticancer Drug Screen. Data for tumor model L1210 Leukemia (intraperitoneal) in CD2F1 (CDF1) mice
Settings: higher = longer survival
In short: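 Transplantable tumor in mice; compound-treated vs vehicle-treated groups. Read-out = treated/control ratio of the measured endpoint.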

[1] = endpoint: mean survival time, dose: 100.0 mg/kg/injection, schedule: Q04DX003 (ip), vehicle: saline
[2] = endpoint: mean survival time, dose: 200.0 mg/kg/injection, schedule: Q04DX003 (ip), vehicle: saline
[3] = endpoint: mean survival time, dose: 400.0 mg/kg/injection, schedule: Q04DX003 (ip), vehicle: saline
[4] = endpoint: mean survival time, dose: 100.0 mg/kg/injection, schedule: Q01DX009 (ip), vehicle: saline with Tween-80
[5] = endpoint: mean survival time, dose: 100.0 mg/kg/injection, schedule: Q04DX003 (ip), vehicle: saline with Tween-80
[6] = endpoint: mean survival time, dose: 200.0 mg/kg/injection, schedule: Q01DX009 (ip), vehicle: saline with Tween-80
[7] = endpoint: mean survival time, dose: 200.0 mg/kg/injection, schedule: Q04DX003 (ip), vehicle: saline with Tween-80
[8] = endpoint: mean survival time, dose: 400.0 mg/kg/injection, schedule: Q01DX009 (ip), vehicle: saline with Tween-80
[9] = endpoint: mean survival time, dose: 400.0 mg/kg/injection, schedule: Q04DX003 (ip), vehicle: saline with Tween-80
[10] = endpoint: mean survival time, dose: 6.25 mg/kg/injection, schedule: Q01DX009 (ip), vehicle: saline with Tween-80
[11] = endpoint: mean survival time, dose: 100.0 mg/kg/injection, schedule: Q04DX003 (ip), vehicle: saline sonified
[12] = endpoint: mean survival time, dose: 200.0 mg/kg/injection, schedule: Q04DX003 (ip), vehicle: saline sonified
[13] = endpoint: mean survival time, dose: 400.0 mg/kg/injection, schedule: Q04DX003 (ip), vehicle: saline sonified
[14] = endpoint: mean survival time, dose: 100.0 mg/kg/injection, schedule: Q01DX001 (ip), vehicle: saline
[15] = endpoint: mean survival time, dose: 200.0 mg/kg/injection, schedule: Q01DX001 (ip), vehicle: saline
[16] = endpoint: mean survival time, dose: 100.0 mg/kg/injection, schedule: Q04DX002 (ip), vehicle: saline with Tween-80
[17] = endpoint: mean survival time, dose: 200.0 mg/kg/injection, schedule: Q04DX002 (ip), vehicle: saline with Tween-80
[18] = endpoint: mean survival time, dose: 400.0 mg/kg/injection, schedule: Q04DX002 (ip), vehicle: saline with Tween-80
[19] = endpoint: mean survival time, dose: 12.5 mg/kg/injection, schedule: Q04DX003 (ip), vehicle: saline with Tween-80

Compound: [Cl][Pt+2][Cl].[NH-]C1CCC1[NH-] (stereo not given)
- T/C (endpoint: median survival time, dose: 2.5 mg/kg/injection, schedule: Q04DX003 (ip), vehicle: Klucel (hydroxypropylcellulose) (HPC)): 111 % of control
- T/C (endpoint: median survival time, dose: 10.0 mg/kg/injection, schedule: Q04DX003 (ip), vehicle: Klucel (hydroxypropylcellulose) (HPC)): 156 % of control and 158 % of control
- T/C (endpoint: median survival time, dose: 20.0 mg/kg/injection, schedule: Q04DX003 (ip), vehicle: Klucel (hydroxypropylcellulose) (HPC)): 177 % of control

Compound: NC1CONC1=O (stereo not given)
- T/C [1]: 94 % of control
- T/C [2]: 97 % of control
- T/C [3]: 96 % of control

Compound: CCOC(=O)C(C)Oc1ccc(Cl)cc1 (stereo not given)
- T/C (endpoint: mean survival time, dose: 25.0 mg/kg/injection, schedule: Q01DX009 (ip), vehicle: water): 107 % of control
- T/C (endpoint: mean survival time, dose: 50.0 mg/kg/injection, schedule: Q01DX009 (ip), vehicle: water): 106 % of control
- T/C (endpoint: mean survival time, dose: 100.0 mg/kg/injection, schedule: Q01DX009 (ip), vehicle: water): 106 % of control
- T/C (endpoint: mean survival time, dose: 200.0 mg/kg/injection, schedule: Q01DX009 (ip), vehicle: water): 107 % of control
- T/C (endpoint: mean survival time, dose: 400.0 mg/kg/injection, schedule: Q01DX009 (ip), vehicle: water): 109 % of control

Compound: Nc1nc(N)c(N=Nc2ccccc2S(=O)(=O)O)c(N)n1
- T/C [4]: 94 % of control
- T/C [5]: 95 % of control
- T/C [6]: 108 % of control
- T/C [7]: 100 % of control
- T/C [8]: 100 % of control
- T/C [9]: 93 % of control

Compound: C=C[CH2][Sn]([CH2]C=C)([c]1ccccc1)[c]1ccccc1
- T/C [10]: 89 % of control
- T/C (endpoint: median survival time, dose: 25.0 mg/kg/injection, schedule: Q04DX002 (ip), vehicle: saline with Tween-80): 112 % of control

Compound: N#CC(/C=C/c1ccccc1)Nc1ccccc1C(N)=O (stereo not given)
- T/C [11]: 97 % of control
- T/C [12]: 97 % of control
- T/C [13]: 97 % of control

Compound: CC(C)(OC(=O)C(NC=O)C(C)(C)S)OC(=O)C(NC=O)C(C)(C)S (stereo not given)
- T/C [4]: 101 % of control
- T/C [6]: 101 % of control
- T/C [8]: 101 % of control

Compound: O=C(O)c1c(O)cccc1O
- T/C (endpoint: mean survival time, dose: 50.0 mg/kg/injection, schedule: Q01DX001 (ip), vehicle: saline): 98 % of control
- T/C [14]: 98 % of control
- T/C [15]: 101 % of control

Compound: CC(O)CCC(=O)c1ccoc1 (stereo not given)
- T/C (endpoint: median survival time, dose: 0.62 mg/kg/injection, schedule: Q03HX015 (ip), vehicle: saline): 109 % of control
- T/C (endpoint: median survival time, dose: 1.25 mg/kg/injection, schedule: Q03HX015 (ip), vehicle: saline): 117 % of control
- T/C (endpoint: median survival time, dose: 2.5 mg/kg/injection, schedule: Q03HX015 (ip), vehicle: saline): 106 % of control
- T/C (endpoint: median survival time, dose: 3.75 mg/kg/injection, schedule: Q03HX015 (ip), vehicle: saline + alcohol): 112 % of control
- T/C (endpoint: median survival time, dose: 5.0 mg/kg/injection, schedule: Q03HX015 (ip), vehicle: saline): 102 % of control
- T/C (endpoint: median survival time, dose: 7.5 mg/kg/injection, schedule: Q03HX015 (ip), vehicle: saline + alcohol): 105 % of control
- T/C (endpoint: median survival time, dose: 10.0 mg/kg/injection, schedule: Q03HX015 (ip), vehicle: saline): 109 % of control

Compound: COc1ccc(NC(=O)c2ccccc2)c([N+](=O)[O-])c1
- T/C [5]: 105 % of control
- T/C [7]: 97 % of control
- T/C [9]: 94 % of control

Compound: CCC(CCc1ccc(OC)c(OC)c1)C(=O)O (stereo not given)
- T/C [16]: 109 % of control
- T/C [17]: 102 % of control
- T/C [18]: 98 % of control

Compound: Nc1ccc(NC(=O)Nc2ccc(N)cc2)cc1
- T/C (endpoint: mean survival time, dose: 3.0 mg/kg/injection, schedule: Q01DX009 (ip), vehicle: saline sonified): 96 % of control
- T/C (endpoint: mean survival time, dose: 6.0 mg/kg/injection, schedule: Q01DX009 (ip), vehicle: saline sonified): 94 % of control
- T/C (endpoint: mean survival time, dose: 12.0 mg/kg/injection, schedule: Q01DX009 (ip), vehicle: saline sonified): 96 % of control
- T/C [19]: 104 % of control

Compound: COc1ccc2oc3c(ccc[n+]3C)c(=O)c2c1
- T/C (endpoint: median survival time, dose: 60.0 mg/kg/injection, schedule: Q01DX005 (ip), vehicle: saline with Tween-80): 104 % of control
- T/C (endpoint: median survival time, dose: 120.0 mg/kg/injection, schedule: Q01DX005 (ip), vehicle: saline with Tween-80): 108 % of control
- T/C (endpoint: median survival time, dose: 240.0 mg/kg/injection, schedule: Q01DX005 (ip), vehicle: saline with Tween-80): 122 % of control

Compound: CCC12NC(=O)NC1(C)NC(=O)N2 (stereo not given)
- T/C [10]: 95 % of control
- T/C (endpoint: mean survival time, dose: 6.25 mg/kg/injection, schedule: Q04DX003 (ip), vehicle: saline with Tween-80): 102 % of control
- T/C (endpoint: mean survival time, dose: 12.5 mg/kg/injection, schedule: Q01DX009 (ip), vehicle: saline with Tween-80): 95 % of control
- T/C [19]: 106 % of control
- T/C (endpoint: mean survival time, dose: 25.0 mg/kg/injection, schedule: Q01DX009 (ip), vehicle: saline with Tween-80): 93 % of control
- T/C (endpoint: mean survival time, dose: 25.0 mg/kg/injection, schedule: Q04DX003 (ip), vehicle: saline with Tween-80): 110 % of control

Compound: Cc1cc(C)nc(NC(=S)N/N=C/c2ccccn2)n1
- T/C [16]: 98 % of control
- T/C [17]: 98 % of control
- T/C [18]: 106 % of control

Compound: O=[N+]([O-])c1cccc(/C=C/C=C/c2ccc(Cl)c(S(=O)(=O)F)c2)c1
- T/C [4]: 100 % of control
- T/C [5]: 100 % of control
- T/C [6]: 94 % of control
- T/C [7]: 88 % of control
- T/C [8]: 97 % of control
- T/C [9]: 90 % of control

Compound: Cc1c(NCO)c(=O)n(-c2ccccc2)n1C
- T/C (endpoint: mean survival time, dose: 100.0 mg/kg/injection, schedule: Q01DX009 (ip), vehicle: saline): 94 % of control
- T/C (endpoint: mean survival time, dose: 200.0 mg/kg/injection, schedule: Q01DX009 (ip), vehicle: saline): 89 % of control
- T/C (endpoint: mean survival time, dose: 400.0 mg/kg/injection, schedule: Q01DX009 (ip), vehicle: saline): 105 % of control

Compound: O=C1NCCCN1O
- T/C [1]: 104 % of control
- T/C [2]: 100 % of control
- T/C [3]: 112 % of control

Compound: CC(C)=CCC/C(C)=C/CNCCc1c[nH]c2ccccc12
- T/C (endpoint: mean survival time, dose: 5.0 mg/kg/injection, schedule: Q01DX009 (ip), vehicle: saline with Tween-80): 102 % of control
- T/C (endpoint: mean survival time, dose: 10.0 mg/kg/injection, schedule: Q01DX009 (ip), vehicle: saline with Tween-80): 98 % of control
- T/C (endpoint: mean survival time, dose: 20.0 mg/kg/injection, schedule: Q01DX009 (ip), vehicle: saline with Tween-80): 100 % of control

Compound: CC1(C)N=C(N)N=C(N)N1c1ccc(C(=O)Nc2ccc(S(=O)(=O)F)cc2)cc1
- T/C [14]: 94 % of control
- T/C [15]: 97 % of control
- T/C (endpoint: mean survival time, dose: 400.0 mg/kg/injection, schedule: Q01DX001 (ip), vehicle: saline): 103 % of control

Compound: CC1CCC(NC(=O)NCCF)CC1 (stereo not given)
- T/C (endpoint: mean survival time, dose: 75.0 mg/kg/injection, schedule: Q01DX001 (ip), vehicle: other): 100 % of control
- T/C (endpoint: mean survival time, dose: 150.0 mg/kg/injection, schedule: Q01DX001 (ip), vehicle: other): 115 % of control

Compound: C=CCCCC[P+](c1ccccc1)(c1ccccc1)c1ccccc1
- T/C (endpoint: mean survival time, dose: 3.0 mg/kg/injection, schedule: Q01DX015 (ip), vehicle: saline): 97 % of control
- T/C (endpoint: mean survival time, dose: 12.0 mg/kg/injection, schedule: Q01DX015 (ip), vehicle: saline): 100 % of control
- T/C (endpoint: mean survival time, dose: 24.0 mg/kg/injection, schedule: Q01DX015 (ip), vehicle: saline): 97 % of control

Compound: CN(C)CCCNC/C=C\CNCCCN(C)C
- T/C [1]: 101 % of control
- T/C [2]: 101 % of control

Compound: COc1nc(NC(C)C)nc(NC(C)C)n1
- T/C (endpoint: mean survival time, dose: 50.0 mg/kg/injection, schedule: Q01DX009 (ip), vehicle: saline with Tween-80): 97 % of control
- T/C [4]: 107 % of control
- T/C [1]: 95 % of control
- T/C [6]: 105 % of control
- T/C [2]: 100 % of control

Compound: Cc1cccc2c1-c1c(C)cccc1CSC2
- T/C [4]: 95 % of control
- T/C [11]: 98 % of control
- T/C [6]: 97 % of control
- T/C [12]: 93 % of control
- T/C [8]: 101 % of control
- T/C [13]: 93 % of control

Compound: C=C(C)CNC1=C(C)C(=O)C2=C(C1=O)[C@@H](COC(N)=O)[C@]1(OC)[C@@H]3N[C@@H]3CN21
- T/C (endpoint: mean survival time, dose: 1.5 mg/kg/injection, schedule: Q01DX001 (ip), vehicle: water): 97 % of control
- T/C (endpoint: mean survival time, dose: 3.0 mg/kg/injection, schedule: Q01DX001 (ip), vehicle: water): 103 % of control
- T/C (endpoint: mean survival time, dose: 6.0 mg/kg/injection, schedule: Q01DX001 (ip), vehicle: distilled water + Tween-80): 104 % of control
- T/C (endpoint: mean survival time, dose: 6.0 mg/kg/injection, schedule: Q01DX001 (ip), vehicle: water): 103 % of control
- T/C (endpoint: mean survival time, dose: 12.0 mg/kg/injection, schedule: Q01DX001 (ip), vehicle: distilled water + Tween-80): 114 % of control
- T/C (endpoint: mean survival time, dose: 12.0 mg/kg/injection, schedule: Q01DX001 (ip), vehicle: water): 108 % of control
- T/C (endpoint: mean survival time, dose: 48.0 mg/kg/injection, schedule: Q01DX001 (ip), vehicle: distilled water + Tween-80): 108 % of control
